# Results: patent US7951598B2, “Differential hemolysis of a whole blood sample” (Roche Diagnostics Operations, Inc., priority 2006, dated 2011)
# How the values were obtained:
# [1] = in vivo; cited from earlier work
# [2] = tested on: red blood cells in EDTA-stabilized whole blood; assay: Visual evaluation of hemolysis (time until hemolysate is clear); format: cell-based
# Experimental: Whether the conditions for differential hemolysis are appropriate can be easily and preferably determined by using the following standardized procedure. A whole blood sample with a hematocrit of 40 is diluted 1:10 and mixed 1:1 with the candidate hemolysis reagent. The efficacy of a reagent for bringing about differential hemolysis is seen visually. Upon lysis of the erythrocytes the mixture becomes clear. If precipitation of sample constituents occurs the sample becomes turbid or viscous or both.
# (§1) Solution A: Fresh EDTA-stabilized whole blood is diluted with 0.15 molar sodium chloride solution in the ratio 1:10 (50 μL EDTA-blood plus 450 μL sodium chloride solution).
# In the case of the addition of a second compound, e.g. potassium iodide (1-Butyl-3-methyl pyridiniumchloride/KJ) the stated salt is added in an approximately equimolar amount.
# Hemolysate is prepared by mixing solution A and B in equal volumes, e.g. 500 μL solution A plus 500 μL solution B.
# After mixing the hemolysate is inspected visually for turbidometry and clearness immediately after mixing, after 1 minute, 2, 5, 6, 7, 20 and 40 minutes. The time until a clear solution is observed is recorded.
# [3] = tested on: erythrocytes in whole blood; assay: Microscopic evaluation of hemolysis, May-Grünwald staining; format: cell-based
# Experimental: as §1
# Solution B: A solution of the hemolysis reagent in 0.15 molar sodium chloride is prepared where the concentration of the hemolysis reagent is twice as high as the desired final concentration in the hemolysate, e.g. to get a final concentration of 25% of 1-Butyl-4-methylpyridinium tetrafluoroborate a solution of 50% ([…] salt plus 50 mL 0.15 molar sodium chloride in water) is prepared. In the case of the addition of a second anion, e.g. iodide (1-Butyl-3-methylpyridiniumchloride/KJ) the stated salt is added in an equimolar amount.
# Hemolysate is prepared by mixing solution A and B in equal volumes, e.g. 20 μL solution A plus 20 μL solution B.
# After mixing of the hemolysate a droplet is smeared on a microscope slide, air dried at room temperature and stained with May-Grünwald staining reagent (Merck Cat. No. 1.01424 May-Grünwald's Eosin Methylene Blue Solution).
# Microscopy is performed by oil immersion light microscopy (magnification ×630).
# [4] = tested on: erythrocytes in whole blood; assay: Microscopic evaluation of hemolysis, Trypane blue staining; format: cell-based; details: reagent 25%, 1 in 10 diluted whole blood
# Experimental: The integrity of red blood cells can for example be easily assessed by appropriate life stains. In a preferred embodiment according to the present invention trypane blue is used in order to assess the integrity of a red blood cell, membrane. […] The membrane integrity of a red blood cell is easily assessed under the microscope after staining a sample with trypane blue. The percentage of disrupted red blood cells is calculated by counting intact red blood cells before and after the treatment, by then dividing the first number by the latter number and by then multiplying this value by 100. Red blood cells that are solubilized are referred to as lyzed red blood cells or as lyzed erythrocytes.
# as §1
# Solution B: A solution of the hemolysis reagent in 0.15 molar sodium chloride is prepared where the concentration of the hemolysis reagent is twice as high as the desired final concentration in the hemolysate, e.g. to get a final concentration of 25% of 1-Butyl-4-methylpyridinium tetrafluoroborate a solution of 50% ([…] salt plus 50 mL 0.15 molar sodium chloride in water) is prepared. […]
# [5] = in vitro; cited from earlier work
# [6] = final concentration 25% (weight/volume), whole blood final dilution 1:20
# [7] = final concentration 12.5% (weight/volume)
smiles,measurement,setting,value
"CO[C@H]1C[C@@H]2CC[C@@H](C)[C@@](O)(O2)C(=O)C(=O)N2CCCC[C@H]2C(=O)O[C@H]([C@H](C)C[C@@H]2CC[C@@H](O)[C@H](OC)C2)CC(=O)[C@H](C)/C=C(\C)[C@@H](O)[C@@H](OC)C(=O)[C@H](C)C[C@H](C)/C=C/C=C/C=C/1C [Sirolimus, sirolimus]",therapeutic trough concentration,[1],5 to 15 µg/L
CCCCCCCC[n+]1ccccc1.[Cl-] [N-Octylpyridiniumchloride],clear after,[2]; [6],2 min
"COc1c(C)c2c(c(O)c1C/C=C(\C)CCC(=O)OCCN1CCOCC1)C(=O)OC2 [MMF, mycophenolate mofetil]",therapeutic trough concentration,[1],1000 to 3500 µg/L
CCCCn1cc[n+](C)c1.F[B-](F)(F)F [1-Butyl-3-methyl-imidazolium tetrafluoroborate],clear after,[2]; [6],20 min
CCCC[n+]1ccc(C)cc1.F[B-](F)(F)F [1-Butyl-4-methylpyridinium tetrafluoroborate],clear after (min.),[2]; final concentration 6% (weight/volume),turbid
same,clear after,[2]; [7],40 min
same,clear after,[2]; [6],20 min
same,"light microscopy of hemolyzed whole blood, May-Grünwald staining","[3]; reagent 25%, 1 in 10 diluted whole blood (FIG. 2)","No erythrocytes or membranes are left, nuclei are still intact"
same,"light microscopy of hemolyzed whole blood, Trypane blue staining",[4]; 2.5 min incubation time (FIG. 4a),Only few residual erythrocytes are left
same,"light microscopy of hemolyzed whole blood, Trypane blue staining",[4]; 15 min incubation time (FIG. 4b),No erythrocytes or membranes are left
CCCCCCCCOC[n+]1cccc(C(N)=O)c1.[Cl-] [3-Carbamoyl-1-octyloxymethyl pyridiniumchloride],clear after (min.),[2]; final concentration 1.5% (weight/volume),immediately
same,clear after (min.),[2]; final concentration 6.25% (weight/volume),immediately
same,clear after (min.),[2]; [7],immediately
"C=CC[C@@H]1/C=C(\C)C[C@H](C)C[C@H](OC)[C@H]2O[C@@](O)(C(=O)C(=O)N3CCCC[C@H]3C(=O)O[C@H](/C(C)=C/[C@@H]3CC[C@@H](O)[C@H](OC)C3)[C@H](C)[C@@H](O)CC1=O)[C@H](C)C[C@@H]2OC [Tacrolimus, tacrolimus]",therapeutic trough concentration,[1],5 to 20 µg/L
same,potency relative to cyclosporin,[5],up to 100 times
CCCC[n+]1cccc(C)c1.[Cl-] [1-Butyl-3-methyl pyridiniumchloride],clear after (min.),[2]; [6],turbid
CCCCCCCCOS(=O)(=O)[O-].CCCCn1cc[n+](C)c1 [1-Butyl-3-methyl-imidazoliumoctylsulfate],clear after (min.),[2]; [6],immediately
"O [water, reference compound]","light microscopy of hemolyzed whole blood, May-Grünwald staining","[3]; hemolyzed with water, 1 in 10 diluted whole blood (FIG. 1)",Erythrocyte membranes and nuclei are visible
CCCCCCCC[N+]1(C)CCCC1.[Cl-] [1-Methyl-1-octyl pyrrolidiniumchloride],clear after (min.),[2]; final concentration 2.5% (weight/volume),turbid
same,clear after (min.),[2]; [6],immediately
CCCCCC[n+]1ccccc1.[Cl-] [1-Hexylpyridiniumchloride],clear after (min.),[2]; [7],turbid
same,clear after,[2]; [6],7 min
